Results from EPA's ToxValDB 9.5 (doi:10.2903/j.efsa.2011.1941).

Columns and labels:
[1] = tested on: Rattus norvegicus
[2] = tested on: Anas platyrhynchos
[3] = tested on: Aphidius rhopalosiphi; conditions: chronic/long-term
[4] = tested on: Apis mellifera; conditions: acute; duration: 48 hours; dermal; mortality
[5] = tested on: Colinus virginianus
[6] = tested on: Daphnia magna; conditions: chronic/long-term; duration: 21 days; reproduction
[7] = tested on: Lepomis macrochirus; conditions: acute; duration: 96 hours; mortality
[8] = tested on: Pimephales promelas; conditions: chronic/long-term; duration: 36 days; growth
[9] = tested on: Tagia sp.
[10] = tested on: Typhlodromus pyri; conditions: chronic/long-term

Nc1ccc(OC(F)(F)F)cc1 [4-Trifluoromethoxyaniline]
NOAEL ([1]; short-term, duration: 6 days): 0.5 mg/kg-day

O=C(NC(=O)c1ccccc1Cl)Nc1ccc(OC(F)(F)F)cc1 [Triflumuron]
NOEC ([2]; reproductive): 6.9 mg/kg-day | LC50 ([2]; short-term, oral, feed, mortality): 180 mg/kg-day | LEL ([3]; mortality): 300 g/ha | LEL ([3]; reproduction): 300 g/ha | LD50 [4]: > 200 µg/piece | LC50 ([5]; acute, oral, diet, mortality): > 805 mg/kg-day | LD50 ([5]; acute, oral, mortality): 561 mg/kg-day | NOEC ([5]; reproduction developmental): 1.65 mg/kg-day | NOEC [6]: 3.2e-05 mg/L | LC50 [7]: > 0.0208 µg/mL | NOEC [8]: ≥ 0.0228 mg/L | LD50 ([1]; acute, oral, mortality): > 5000 mg/kg-day | NOEL ([1]; chronic): 142 mg/kg-day | NOAEL ([1]; chronic, duration: 2 years, hematological): 0.82 mg/kg-day | NOAEL ([1]; subchronic, duration: 90 days, oral, hematological): 3.6 mg/kg-day | LC50 ([9]; acute, duration: 14 days, mortality): > 500 mg/kg | NOEC ([9]; chronic/long-term, duration: 56 days, reproduction): > 378 mg/kg | LEL ([10]; duration: 7 days, mortality): 384 g/ha | LEL ([10]; reproduction): 384 g/ha
